Here are results for 26 compounds from patent publication US7947717B2 (priority 2008, dated 2011).

The IC50 is the midpoint of a concentration-inhibition curve. Usually solubility stands for the concentration that dissolves in the medium under given conditions.

The target of data set [1] is lethal factor (LF) (Bacillus anthracis, UniProt P15917). Kind of data set: biochemical. Type of data set: biochemical.
Data set [2] concerns the target BoNT A (Clostridium botulinum, UniProt P0DPI0). Kind of data set: biochemical.
Data set [3] addresses T1, MMP-2 (Homo sapiens, UniProt P08253).
T1 construct: purchased Anaspec, Inc. 71151/71155
T1 sequence (P08253 110-660): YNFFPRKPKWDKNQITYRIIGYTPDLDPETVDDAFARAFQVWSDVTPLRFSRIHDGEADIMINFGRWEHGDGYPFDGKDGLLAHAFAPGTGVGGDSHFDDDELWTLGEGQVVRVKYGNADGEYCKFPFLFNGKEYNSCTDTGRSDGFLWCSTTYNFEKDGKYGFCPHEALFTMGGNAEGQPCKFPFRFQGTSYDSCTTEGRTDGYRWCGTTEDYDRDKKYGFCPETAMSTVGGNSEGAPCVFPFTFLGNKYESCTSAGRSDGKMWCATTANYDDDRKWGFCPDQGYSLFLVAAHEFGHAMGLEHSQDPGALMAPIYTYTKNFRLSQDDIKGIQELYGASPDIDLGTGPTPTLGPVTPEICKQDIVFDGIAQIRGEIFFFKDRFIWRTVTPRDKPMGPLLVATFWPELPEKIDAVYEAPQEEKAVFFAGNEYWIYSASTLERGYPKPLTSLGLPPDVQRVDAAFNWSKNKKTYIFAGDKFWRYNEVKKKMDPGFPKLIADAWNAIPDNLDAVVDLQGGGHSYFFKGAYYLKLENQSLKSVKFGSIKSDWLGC
Kind of data set: MMP-2 assay (Anaspec kit). Type of data set: biochemical.

Data set [4] deals with T2, MMP-9 (Homo sapiens, UniProt P14780).
T2 construct: purchased Anaspec, Inc. 71151/71155
T2 sequence (P14780 107-707 limits assumed): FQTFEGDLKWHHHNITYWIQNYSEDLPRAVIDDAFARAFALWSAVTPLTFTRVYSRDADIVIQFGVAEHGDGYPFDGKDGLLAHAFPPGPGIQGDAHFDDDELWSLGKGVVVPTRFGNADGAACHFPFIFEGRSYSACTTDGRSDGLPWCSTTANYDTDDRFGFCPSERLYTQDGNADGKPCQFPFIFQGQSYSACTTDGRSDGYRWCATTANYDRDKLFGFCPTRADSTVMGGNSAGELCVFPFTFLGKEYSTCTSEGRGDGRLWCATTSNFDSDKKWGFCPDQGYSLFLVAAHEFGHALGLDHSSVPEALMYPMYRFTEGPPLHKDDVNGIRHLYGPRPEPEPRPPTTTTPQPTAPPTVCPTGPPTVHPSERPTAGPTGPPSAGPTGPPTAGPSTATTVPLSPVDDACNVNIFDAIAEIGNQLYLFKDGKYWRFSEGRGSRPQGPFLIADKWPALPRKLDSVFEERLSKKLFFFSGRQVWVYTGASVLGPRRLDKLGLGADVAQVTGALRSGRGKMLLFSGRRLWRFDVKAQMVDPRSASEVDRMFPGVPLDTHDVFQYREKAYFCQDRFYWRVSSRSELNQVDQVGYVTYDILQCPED
Kind of data set: MMP-9 assay (Anaspec kit). The format is biochemical.

Data set [5] has as its system RAW 264.7 cells. Type of data set: cell-based, Murine.
Data set [6] can be described thus: physchem. To be noted: 23 °C, pH 7.4, aqueous with cosolvent or surfactant or cyclodextrin, kinetic from dmso stock.

Like-named read-outs stand apart in the source and are kept apart here.

Chain of lethal factor (LF) (P15917 34-809 limits assumed): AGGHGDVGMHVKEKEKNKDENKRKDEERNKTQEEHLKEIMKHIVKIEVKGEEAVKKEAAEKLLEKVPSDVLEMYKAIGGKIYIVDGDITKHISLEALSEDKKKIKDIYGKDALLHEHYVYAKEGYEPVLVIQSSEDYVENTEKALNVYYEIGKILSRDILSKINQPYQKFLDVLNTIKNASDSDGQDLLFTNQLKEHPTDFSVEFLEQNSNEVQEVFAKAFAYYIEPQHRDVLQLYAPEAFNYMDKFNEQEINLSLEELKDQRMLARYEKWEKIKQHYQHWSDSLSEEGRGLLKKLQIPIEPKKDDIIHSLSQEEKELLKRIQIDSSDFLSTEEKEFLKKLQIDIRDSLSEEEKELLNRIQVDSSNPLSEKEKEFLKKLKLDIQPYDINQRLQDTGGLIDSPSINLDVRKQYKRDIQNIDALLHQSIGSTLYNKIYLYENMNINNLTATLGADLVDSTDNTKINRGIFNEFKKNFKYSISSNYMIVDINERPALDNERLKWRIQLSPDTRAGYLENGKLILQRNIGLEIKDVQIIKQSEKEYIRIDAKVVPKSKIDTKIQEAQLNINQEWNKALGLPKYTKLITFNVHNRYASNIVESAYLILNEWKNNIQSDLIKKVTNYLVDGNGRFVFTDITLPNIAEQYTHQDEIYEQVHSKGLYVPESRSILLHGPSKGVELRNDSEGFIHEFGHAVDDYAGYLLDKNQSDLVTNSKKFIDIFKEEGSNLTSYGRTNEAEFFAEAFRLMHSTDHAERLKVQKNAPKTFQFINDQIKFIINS
Chain of BoNT A (P0DPI0 whole entry, looked up): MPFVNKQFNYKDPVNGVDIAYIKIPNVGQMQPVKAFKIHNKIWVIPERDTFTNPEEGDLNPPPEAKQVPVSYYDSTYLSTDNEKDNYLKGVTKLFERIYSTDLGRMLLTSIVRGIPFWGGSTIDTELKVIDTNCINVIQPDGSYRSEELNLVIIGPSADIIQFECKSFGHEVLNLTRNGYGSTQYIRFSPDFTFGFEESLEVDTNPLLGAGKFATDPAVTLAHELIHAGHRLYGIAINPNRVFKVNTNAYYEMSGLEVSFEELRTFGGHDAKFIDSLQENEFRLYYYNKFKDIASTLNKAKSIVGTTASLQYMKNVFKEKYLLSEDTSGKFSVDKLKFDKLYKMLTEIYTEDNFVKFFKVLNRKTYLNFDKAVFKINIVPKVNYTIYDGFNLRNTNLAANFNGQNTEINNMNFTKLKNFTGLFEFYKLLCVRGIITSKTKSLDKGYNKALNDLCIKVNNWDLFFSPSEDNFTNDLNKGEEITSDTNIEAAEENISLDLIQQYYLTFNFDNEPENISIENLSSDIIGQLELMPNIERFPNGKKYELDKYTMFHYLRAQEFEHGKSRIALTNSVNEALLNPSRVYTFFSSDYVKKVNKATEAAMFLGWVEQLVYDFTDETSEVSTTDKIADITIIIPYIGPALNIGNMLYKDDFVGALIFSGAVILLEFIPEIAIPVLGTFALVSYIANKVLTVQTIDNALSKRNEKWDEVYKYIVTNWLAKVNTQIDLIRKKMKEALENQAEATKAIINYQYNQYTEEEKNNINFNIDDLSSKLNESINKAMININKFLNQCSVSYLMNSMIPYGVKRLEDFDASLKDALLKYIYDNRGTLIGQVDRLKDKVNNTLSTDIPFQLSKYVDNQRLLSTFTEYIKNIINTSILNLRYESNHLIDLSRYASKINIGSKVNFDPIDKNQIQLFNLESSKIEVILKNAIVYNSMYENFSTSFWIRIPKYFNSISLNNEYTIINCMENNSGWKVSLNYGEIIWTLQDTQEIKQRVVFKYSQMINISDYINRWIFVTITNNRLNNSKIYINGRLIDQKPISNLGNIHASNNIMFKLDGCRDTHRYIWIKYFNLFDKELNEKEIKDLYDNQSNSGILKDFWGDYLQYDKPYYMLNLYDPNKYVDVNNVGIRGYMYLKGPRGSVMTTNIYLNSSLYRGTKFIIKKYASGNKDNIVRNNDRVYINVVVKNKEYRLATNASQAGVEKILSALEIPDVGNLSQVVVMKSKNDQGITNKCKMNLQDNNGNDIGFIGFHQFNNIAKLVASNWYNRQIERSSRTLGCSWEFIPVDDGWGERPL

For `O=C(O)CN1C(=O)/C(=C/c2cc(-c3ccco3)on2)SC1=S` [Compound 20, (Z)-2-(5-((5-(furan-2-yl)isoxazol-3-yl)methylene)-4-oxo-2-thioxothiazolidin-3-yl)acetic acid], the IC50 in data set [1] (pH 7.4, read-out: LF IC50) is 17 µM; in data set [2], over 200 µM; in data set [3] (read-out: MMP2 IC50) it was 39.4 µM.
In the case of `O=C(O)CN1C(=O)C(=Cc2cc(-c3ccccc3)on2)SC1=S` [Compound 21, 2-(4-oxo-2-thioxo-5-((5-phenylisoxazol-3-yl)methylene)thiazolidin-3-yl)acetic acid], the IC50 is 18.7 µM in data set [1], over 200 µM in data set [2], over 100 µM in data set [3] and 50 µM in data set [4].
`Cc1ccc(-c2cc(C=C3SC(=S)N(CC(=O)O)C3=O)no2)cc1` [Compound 22, 2-(4-oxo-2-thioxo-5-((5-p-tolylisoxazol-3-yl)methylene)thiazolidin-3-yl)acetic acid]: the IC50 is 5.9 µM in data set [1], 130 µM in data set [2], under 10 µM in data set [3] and over 100 µM in data set [4].
As to `COc1ccc(-c2cc(C=C3SC(=S)N(CC(=O)O)C3=O)no2)cc1` [Compound 23, 2-(5-((5-(4-methoxyphenyl)isoxazol-3-yl)methylene)-4-oxo-2-thioxothiazolidin-3-yl)acetic acid], the half-inhibitory concentration (IC50) in data set [2] is 194 µM; in data set [3], 6.62 µM; in data set [4] it was over 100 µM.
`O=C(O)CN1C(=O)C(=Cc2cc(-c3ccc(Cl)cc3)on2)SC1=S` [Compound 24, 2-(5-((5-(4-chlorophenyl)isoxazol-3-yl)methylene)-4-oxo-2-thioxothiazolidin-3-yl)acetic acid]: the results for the concentration for half-maximal inhibition (IC50) in data set [2], in data set [3] and in data set [4] were 82.7 µM, 19.2 µM and over 100 µM, respectively.
For the compound `O=C(O)CN1C(=O)C(=Cc2cc(-c3ccc(F)cc3)on2)SC1=S` [Compound 25, 2-(5-((5-(4-fluorophenyl)isoxazol-3-yl)methylene)-4-oxo-2-thioxothiazolidin-3-yl)acetic acid], the IC50 in data set [1] is 12.4 µM; in data set [2], over 200 µM; in data set [3] it was 10 µM; in data set [4] it was over 100 µM.
As to `O=C(O)CN1C(=O)C(=Cc2cc(-c3ccc(Br)cc3)on2)SC1=S` [Compound 26, 2-(5-((5-(4-bromophenyl)isoxazol-3-yl)methylene)-4-oxo-2-thioxothiazolidin-3-yl)acetic acid], the IC50 in data set [1] was 17.3 µM; in data set [2] it was over 200 µM; in data set [3], over 100 µM; in data set [4] it was 27.4 µM.
`O=C(O)CN1C(=O)/C(=C/c2cn(-c3ccc(F)cc3F)nc2-c2cccnc2)SC1=S` [Compound 32, (Z)-2-(5-((1-(2,4-difluorophenyl)-3-(pyridin-3-yl)-1H-pyrazol-4-yl)methylene)-4-oxo-2-thioxothiazolidin-3-yl)acetic acid]: the IC50 is 2.99 µM in data set [1] (pH 7.4, read-out: LF IC50); 71.5 µM in data set [2]; 13.7 µM in data set [3].
`O=C(O)CN1C(=O)/C(=C/c2cn(-c3ccc(F)cc3)nc2-c2ccc(F)cc2)SC1=S` [Compound 33, (Z)-2-(5-((1,3-bis(4-fluorophenyl)-1H-pyrazol-4-yl)methylene)-4-oxo-2-thioxothiazolidin-3-yl)acetic acid]: the half-inhibitory concentration (IC50) in data set [1] (pH 7.4, read-out: LF IC50) amounted to 4.22 µM; in data set [2], 52.6 µM; in data set [3], 39.4 µM.
Regarding `O=C(O)CN1C(=O)/C(=C/c2cn(-c3ccc(Br)cc3)nc2-c2ccc(Br)cc2)SC1=S` [Compound 35, (Z)-2-(5-((1,3-bis(4-bromophenyl)-1H-pyrazol-4-yl)methylene)-4-oxo-2-thioxothiazolidin-3-yl)acetic acid], the IC50 was found to be 3.35 µM in data set [1] (pH 7.4, read-out: LF IC50) and 5.45 µM in data set [2]. Moreover, the “inhibition of MMP-2 (in words)” value in data set [3] is “did not inhibit”. In data set [4], the “inhibition of MMP-9 (in words)” value is “did not inhibit”.
In the case of `O=C1/C(=C/c2cn(-c3ccccc3)nc2-c2ccc(OCc3ccc(Cl)cc3)cc2)SC(=S)N1CCS(=O)(=O)O` [Compound 38, (Z)-2-(5-((3-(4-(4-chlorobenzyloxy)phenyl)-1-phenyl-1H-pyrazol-4-yl)methylene)-4-oxo-2-thioxothiazolidin-3-yl)ethanesulfonic acid], the IC50 was 2.45 µM in data set [1] (pH 7.4, read-out: LF IC50); over 200 µM in data set [2]; 10.1 µM in data set [3]. Besides, in data set [5], the “protection of macrophages from LF/PA-induced cell death” value is “protect macrophages from LF/PA-induced cell death”.
Consider `CC1Cc2cc(-c3nn(-c4ccccc4)cc3/C=C3\SC(=S)N(CCS(=O)(=O)O)C3=O)ccc2O1` (stereo not drawn) [Compound 39, (Z)-2-(5-((3-(2-methyl-2,3-dihydrobenzofuran-5-yl)-1-phenyl-1H-pyrazol-4-yl)methylene)-4-oxo-2-thioxothiazolidin-3-yl)ethanesulfonic acid], for which the half-maximal inhibitory concentration (IC50) is 2.29 µM in data set [1] (pH 7.4, read-out: LF IC50) and over 200 µM in data set [2]. Further, the “protection of macrophages from LF/PA-induced cell death” value in data set [5] is “protect macrophages from LF/PA-induced cell death”.
With `O=C1/C(=C/c2cn(-c3ccccc3)nc2-c2ccc(Cl)cc2)SC(=S)N1CCS(=O)(=O)O` [Compound 41, (Z)-2-(5-((3-(4-chlorophenyl)-1-phenyl-1H-pyrazol-4-yl)methylene)-4-oxo-2-thioxothiazolidin-3-yl)ethanesulfonic acid], the IC50 in data set [1] (pH 7.4, read-out: LF IC50) was 3.66 µM; in data set [2] it was over 200 µM; in data set [3], 26.9 µM.
As for `O=C(O)CN1C(=O)/C(=C/c2sc(Br)c3c2OCCO3)SC1=S` [Compound 47, (Z)-2-(5-((7-bromo-2,3-dihydrothieno[3,4-b][1,4]dioxin-5-yl)methylene)4-oxo-2-thioxothiazolidin-3-yl)acetic acid], the half-maximal inhibitory concentration (IC50) in data set [1] (pH 7.4, read-out: LF IC50) is 11.4 µM; in data set [2] it was over 200 µM; in data set [3] (read-out: MMP2 IC50), 50.6 µM.
As to `O=C(O)CN1C(=O)/C(=C/c2ccc(N3CCOCC3)s2)SC1=S` [Compound 48, (Z)-2-(5-((5-morpholinothiophen-2-yl)methylene)-4-oxo-2-thioxothiazolidin-3-yl)acetic acid], the IC50 in data set [1] (pH 7.4, read-out: LF IC50) was 32.5 µM; in data set [2], 112 µM; in data set [3] (read-out: MMP2 IC50), 47.1 µM; in data set [4] (read-out: MMP9 IC50), 64.9 µM.
As to `Cc1ccc2cc(/C=C3\SC(=S)N(CC(=O)O)C3=O)ccc2n1` [Compound 54, (Z)-2-(5-((2-methylquinolin-6-yl)methylene)-4-oxo-2-thioxothiazolidin-3-yl)acetic acid], the IC50 is 5.25 µM in data set [1] (pH 7.4, read-out: LF IC50); over 200 µM in data set [2]; 18 µM in data set [3] (read-out: MMP2 IC50).
On to `O=C(O)CN1C(=O)/C(=C/c2csc3ccccc23)SC1=S` [Compound 57, (Z)-2-(5-(benzo[b]thiophen-3-ylmethylene)-4-oxo-2-thioxothiazolidin-3-yl)acetic acid], for which the IC50 in data set [1] (pH 7.4, read-out: LF IC50) was 13 µM; in data set [2], over 200 µM.
In the case of `O=C(O)CN1C(=O)/C(=C/c2csc3ccc(Br)cc23)SC1=S` [Compound 58, (Z)-2-(5-((5-bromobenzo[b]thiophen-3-yl)methylene)-4-oxo-2-thioxothiazolidin-3-yl)acetic acid], the IC50 was determined as 10.4 µM in data set [1] (pH 7.4, read-out: LF IC50); 74.3 µM in data set [2]; 46.9 µM in data set [3] (read-out: MMP2 IC50); 64.9 µM in data set [4] (read-out: MMP9 IC50).
As to `O=C(O)CN1C(=O)/C(=C/c2cc3nccnc3s2)SC1=S` [Compound 59], the IC50 in data set [1] (pH 7.4, read-out: LF IC50) was 24.9 µM; in data set [2] it was over 200 µM.
With `O=C(O)CN1C(=O)/C(=C/c2c[nH]c3ccccc23)SC1=S` [Compound 60, (Z)-2-(5-((1H-indol-3-yl)methylene)-4-oxo-2-thioxothiazolidin-3-yl)acetic acid], the IC50 in data set [1] (pH 7.4, read-out: LF IC50) was 38.7 µM; in data set [2] it was over 200 µM.
The matching figures for `O=C(O)CN1C(=O)/C(=C/c2c[nH]c3ccc(Br)cc23)SC1=S` [Compound 61, (Z)-2-(5-((5-bromo-1H-indol-3-yl)methylene)-4-oxo-2-thioxothiazolidin-3-yl)acetic acid]: 7.04 µM and over 200 µM.
As for `O=C(O)CN1C(=O)/C(=C2/C(=O)N(CC(=O)Nc3cccc(Cl)c3)c3ccccc32)SC1=S` [Compound 62, (Z)-2-(5-(1-(2-(3-chlorophenylamino)-2-oxoethyl)-2-oxoindolin-3-ylidene)-4-oxo-2-thioxothiazolidin-3-yl)acetic acid], the concentration for half-maximal inhibition (IC50) is 4.4 µM in data set [1] (pH 7.4, read-out: LF IC50); over 200 µM in data set [2]; over 25 µM in data set [3]; over 25 µM in data set [4].
As for `COCCc1ccc(OCC(O)CNC(C)C)cc1` (stereo not drawn) [Metoprolol], the “Pampa (d) permeability class” value is “High”.
As for `CC(C)NCC(O)COc1cccc2ccccc12` (stereo not drawn) [Propranolol], the “Pampa (d) permeability class” value is recorded as “High”.
For the compound `CC(=O)Oc1ccccc1C(=O)O` [acetylsalicylic acid, reference compound], in data set [6], the solubility is over 100 µg/mL.
For the compound Lucifer Yellow, the “Pampa (d) permeability class” value is listed as “Low”.
